Data taken from PubChem BioAssay (NCI).
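Following 48 hours of exposure in 96-well plates, responses at five concentrations were used to interpolate endpoints linearly. GI50 = concentration required for 50% inhibition of growth. At the TGI there is no net growth.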

Key:
Experiment in all cases: NCI tumour cell line growth inhibition, 48 h; in the data active = GI50 below about 0.43 µM; inactive = the rest
786-0 renal = tested on: 786-0 renal
A549 NSCLC = tested on: A549 NSCLC
ACHN renal = tested on: ACHN renal
BT-549 breast = tested on: BT-549 breast
CAKI-1 renal = tested on: CAKI-1 renal
CCRF-CEM leukemia = tested on: CCRF-CEM leukemia
COLO 205 colon = tested on: COLO 205 colon
DU-145 prostate = tested on: DU-145 prostate
EKVX NSCLC = tested on: EKVX NSCLC
HCC-2998 colon = tested on: HCC-2998 colon
HCT-116 colon = tested on: HCT-116 colon
HCT-15 colon = tested on: HCT-15 colon
HL-60(TB) leukemia = tested on: HL-60(TB) leukemia
HOP-62 NSCLC = tested on: HOP-62 NSCLC
HOP-92 NSCLC = tested on: HOP-92 NSCLC
HS 578T breast = tested on: HS 578T breast
HT29 colon = tested on: HT29 colon
IGROV1 ovarian = tested on: IGROV1 ovarian
KM12 colon = tested on: KM12 colon
LOX IMVI melanoma = tested on: LOX IMVI melanoma
M14 melanoma = tested on: M14 melanoma
MALME-3M melanoma = tested on: MALME-3M melanoma
MCF7 breast = tested on: MCF7 breast
MDA-MB-231 breast = tested on: MDA-MB-231 breast
MDA-MB-435 = tested on: MDA-MB-435
MOLT-4 leukemia = tested on: MOLT-4 leukemia
NCI-H226 lung = tested on: NCI-H226 lung
NCI-H23 lung = tested on: NCI-H23 lung
NCI-H460 lung = tested on: NCI-H460 lung
NCI-H522 lung = tested on: NCI-H522 lung
OVCAR-3 ovarian = tested on: OVCAR-3 ovarian
OVCAR-4 ovarian = tested on: OVCAR-4 ovarian
OVCAR-5 ovarian = tested on: OVCAR-5 ovarian
OVCAR-8 ovarian = tested on: OVCAR-8 ovarian
PC-3 prostate = tested on: PC-3 prostate
RPMI-8226 leukemia = tested on: RPMI-8226 leukemia
RXF 393 renal = tested on: RXF 393 renal
SF-268 CNS = tested on: SF-268 CNS
SF-295 CNS = tested on: SF-295 CNS
SF-539 CNS = tested on: SF-539 CNS
SK-MEL-2 melanoma = tested on: SK-MEL-2 melanoma
SK-MEL-28 melanoma = tested on: SK-MEL-28 melanoma
SN12C renal = tested on: SN12C renal
SNB-19 CNS = tested on: SNB-19 CNS
SNB-75 CNS = tested on: SNB-75 CNS
SR leukemia = tested on: SR leukemia
T-47D breast = tested on: T-47D breast
TK-10 renal = tested on: TK-10 renal
U251 CNS = tested on: U251 CNS
UACC-257 melanoma = tested on: UACC-257 melanoma
UACC-62 melanoma = tested on: UACC-62 melanoma
UO-31 renal = tested on: UO-31 renal

Clc1ccc2c(c1)N(c1ncnc3ccc(-c4cnc5[nH]ncc5c4)cc13)CC2
554 nM: TGI (IGROV1 ovarian)
active: GI50 (A549 NSCLC) 330 nM | GI50 (ACHN renal) 317 nM | GI50 (CAKI-1 renal) 316 nM | GI50 (DU-145 prostate) 351 nM | GI50 (EKVX NSCLC) 338 nM | GI50 (HCT-15 colon) 392 nM | GI50 (HL-60(TB) leukemia) 411 nM | GI50 (HOP-92 NSCLC) 169 nM | GI50 (HS 578T breast) 162 nM | GI50 (HT29 colon) 344 nM | GI50 (IGROV1 ovarian) 110 nM | GI50 (LOX IMVI melanoma) 338 nM | GI50 (MCF7 breast) 228 nM | GI50 (OVCAR-5 ovarian) 396 nM | GI50 (RXF 393 renal) 229 nM | GI50 (SN12C renal) 407 nM | GI50 (SNB-75 CNS) 80.4 nM | GI50 (T-47D breast) 42.4 nM | GI50 (UO-31 renal) 151 nM
693 nM: TGI (T-47D breast)
517 nM: TGI (SNB-75 CNS)
970 nM: TGI (RXF 393 renal)
inactive: GI50 (786-0 renal) 689 nM | GI50 (BT-549 breast) 676 nM | GI50 (CCRF-CEM leukemia) 547 nM | GI50 (COLO 205 colon) 695 nM | GI50 (HCC-2998 colon) 1070 nM | GI50 (HCT-116 colon) 1150 nM | GI50 (HOP-62 NSCLC) 463 nM | GI50 (KM12 colon) 3530 nM | GI50 (M14 melanoma) 869 nM | GI50 (MALME-3M melanoma) 1120 nM | GI50 (MDA-MB-231 breast) 719 nM | GI50 (MDA-MB-435) 804 nM | GI50 (MOLT-4 leukemia) 465 nM | GI50 (NCI-H226 lung) 896 nM | GI50 (NCI-H23 lung) 2680 nM | GI50 (NCI-H460 lung) 463 nM | GI50 (NCI-H522 lung) 2230 nM | GI50 (OVCAR-3 ovarian) 471 nM | GI50 (OVCAR-4 ovarian) 747 nM | GI50 (OVCAR-8 ovarian) 966 nM | GI50 (PC-3 prostate) 458 nM | GI50 (RPMI-8226 leukemia) 759 nM | GI50 (SF-268 CNS) 538 nM | GI50 (SF-295 CNS) 632 nM | GI50 (SF-539 CNS) 645 nM | GI50 (SK-MEL-2 melanoma) 7000 nM | GI50 (SK-MEL-28 melanoma) 770 nM | GI50 (SNB-19 CNS) 1460 nM | GI50 (SR leukemia) 722 nM | GI50 (TK-10 renal) 835 nM | GI50 (U251 CNS) 9790 nM | GI50 (UACC-257 melanoma) > 100000 nM | GI50 (UACC-62 melanoma) 460 nM
> 100000 nM: TGI (786-0 renal) | TGI (A549 NSCLC) | TGI (ACHN renal) | TGI (BT-549 breast) | TGI (CAKI-1 renal) | TGI (CCRF-CEM leukemia) | TGI (COLO 205 colon) | TGI (DU-145 prostate) | TGI (EKVX NSCLC) | TGI (HCC-2998 colon) | TGI (HCT-116 colon) | TGI (HCT-15 colon) | TGI (HL-60(TB) leukemia) | TGI (HOP-62 NSCLC) | TGI (HOP-92 NSCLC) | TGI (HT29 colon) | TGI (KM12 colon) | TGI (LOX IMVI melanoma) | TGI (M14 melanoma) | TGI (MALME-3M melanoma) | TGI (MCF7 breast) | TGI (MDA-MB-231 breast) | TGI (MDA-MB-435) | TGI (MOLT-4 leukemia) | TGI (NCI-H226 lung) | TGI (NCI-H23 lung) | TGI (NCI-H460 lung) | TGI (NCI-H522 lung) | TGI (OVCAR-3 ovarian) | TGI (OVCAR-4 ovarian) | TGI (OVCAR-5 ovarian) | TGI (OVCAR-8 ovarian) | TGI (PC-3 prostate) | TGI (RPMI-8226 leukemia) | TGI (SF-268 CNS) | TGI (SF-295 CNS) | TGI (SF-539 CNS) | TGI (SK-MEL-2 melanoma) | TGI (SK-MEL-28 melanoma) | TGI (SN12C renal) | TGI (SNB-19 CNS) | TGI (SR leukemia) | TGI (TK-10 renal) | TGI (U251 CNS) | TGI (UACC-257 melanoma) | TGI (UACC-62 melanoma) | TGI (UO-31 renal)
651 nM: TGI (HS 578T breast)
